From patent publication US20250066339A1, “HETEROCYCLE-SUBSTITUTED AROMATIC COMPOUND, METHOD FOR PREPARING SAME, HERBICIDAL COMPOSITION, AND USE THEREOF” (QINGDAO KINGAGROOT CHEMICAL COMPOUND CO., LTD., priority 2022, published 2025)

Legend:
Test in all cases: Post-emergence test on weeds
Assay type in all cases: in vivo
Set-up in all cases: key: Level 10: completely dead; Level 9: growth control rate greater than or equal to 90% and less than 100%; Level 8: growth control rate greater than or equal to 80% and less than 90%; Level 7: growth control rate greater than or equal to 70% and less than 80%; Level 6: growth control rate greater than or equal to 60% and less than 70%; Level 5: growth control rate greater than or equal to 50% and less than 60%; Level 4: growth control rate greater than or equal to 40% and less than 50%; Level 3: growth control rate greater than or equal to 30% and less than 40%; Level 2: growth control rate greater than or equal to 20% and less than 30%; Level 1: growth control rate less than 20%; Level 0: no effect
Conditions in all cases: 3 weeks after application, fresh weight control rate
[1] = system: Amaranthus retroflexus
Description: (§1) The activity level criteria for plant damage (i.e., growth control rate) are as follows: • Level 10: completely dead; • Level 9: growth control rate greater than or equal to 90% and less than 100%; • Level 8: growth control rate greater than or equal to 80% and less than 90%; • Level 7: growth control rate greater than or equal to 70% and less than 80%; • Level 6: growth control rate greater than or equal to 60% and less than 70%; • Level 5: growth control rate greater than or equal to 50% and less than 60%; • Level 4: growth control rate greater than or equal to 40% and less than 50%; • Level 3: growth control rate greater than or equal to 30% and less than 40%; • Level 2: growth control rate greater than or equal to 20% and less than 30%; • Level 1: growth control rate less than 20%; • Level 0: no effect.
(§2) The above growth control rates are fresh weight control rates.
(§3) Monocotyledonous and dicotyledonous weed seeds (Descurainia sophia, Capsella bursa-pastoris, Abutilon theophrasti, Galium spurium, Stellaria media, Lithospermum arvense, Rorippa indica, Alopecurus aequalis, Alopecurus japonicus, Eleusine indica, Beckmannia syzigachne, Sclerochloa dura, Erigeron canadensis, Phleum paniculatum, Veronica polita, Bromus japonicus, Aegilops tauschii, Phalaris arundinacea, Amaranthus retroflexus, Chenopodium, Commelina communis, Cichorium endivia, Convolvulus arvensis, Cirsium arvense, Solanum nigrum, Acalypha australis, Digitaria sanguinalis, Echinochloa crus-galli, Setaria viridis, Setaria pumila, Leptochloa chinensis, Monochoria vaginalis, Sagittaria trifolia, Schoenoplectiella juncoides, Cyperus rotundus, Cyperus iria, Cyperus difformis, Fimbristylis, Portulaca oleracea, Xanthium sibiricum, Ipomoea nil, Eschenbachia japonica, etc.) and major crop seeds (wheat, maize, paddy rice, soybean, cotton, oilseed rape, millet, sorghum, potato, sesame, castor plant, etc.) were placed in plastic pots filled with soil and then covered with 0.5-2 cm of soil to allow them to grow in a favorable greenhouse environment. Two weeks after sowing, the test plants were treated at the stage of 2-3 leaves. The test compounds of the present invention were individually dissolved with acetone, then added with Tween® 80, with 1.5 L/ha of methyl oleate emulsifiable concentrate as a synergist, diluted into solutions of certain concentrations using certain amount of water, and sprayed to the plants using a spray tower. After drug application, the experimental results on weeds were collected after 3 weeks of cultivation in a greenhouse. The compounds were applied at 500, 250, 125, 60, 15, and 7.5 g a.i./ha in triplicate, and the results were averaged.

[2] = system: Echinochloa crus-galli
Description: as §1, §2, §3

[3] = system: Digitaria sanguinalis
Description: as §1, §2, §3

[4] = system: Abutilon theophrasti
Description: as §1, §2, §3

[5] = system: Setaria viridis
Description: as §1, §2, §3

[6] = system: Veronica polita
Description: as §1, §2, §3

CC1(C(=O)OC2CCCC2)CC(c2cc(-c3ncc(C(F)(F)F)cc3Cl)c(F)cc2Cl)=NO1 (stereo not drawn) [Compound 43]
10: activity level (growth control rate) Amaranthus retroflexus ([1]; 15 g a.i./ha) | activity level (growth control rate) Echinochloa crus-galli ([2]; 15 g a.i./ha) | activity level (growth control rate) Digitaria sanguinalis ([3]; 15 g a.i./ha) | activity level (growth control rate) Abutilon theophrasti ([4]; 15 g a.i./ha) | activity level (growth control rate) Setaria viridis ([5]; 15 g a.i./ha) | activity level (growth control rate) Veronica polita ([6]; 15 g a.i./ha)

CC1(C(=O)OCCF)CC(c2cc(-c3ncc(C(F)(F)F)cc3Cl)c(F)cc2Cl)=NO1 (stereo not drawn) [Compound 44]
10: activity level (growth control rate) Amaranthus retroflexus ([1]; 15 g a.i./ha) | activity level (growth control rate) Echinochloa crus-galli ([2]; 15 g a.i./ha) | activity level (growth control rate) Digitaria sanguinalis ([3]; 15 g a.i./ha) | activity level (growth control rate) Abutilon theophrasti ([4]; 15 g a.i./ha) | activity level (growth control rate) Setaria viridis ([5]; 15 g a.i./ha) | activity level (growth control rate) Veronica polita ([6]; 15 g a.i./ha)

CC1(C(=O)OCC(F)(F)F)CC(c2cc(-c3ncc(C(F)(F)F)cc3Cl)c(F)cc2Cl)=NO1 (stereo not drawn) [Compound 45]
10: activity level (growth control rate) Amaranthus retroflexus ([1]; 60 g a.i./ha) | activity level (growth control rate) Echinochloa crus-galli ([2]; 60 g a.i./ha) | activity level (growth control rate) Digitaria sanguinalis ([3]; 60 g a.i./ha) | activity level (growth control rate) Abutilon theophrasti ([4]; 60 g a.i./ha) | activity level (growth control rate) Setaria viridis ([5]; 60 g a.i./ha) | activity level (growth control rate) Veronica polita ([6]; 60 g a.i./ha)

COCOC(=O)C1(C)CC(c2cc(-c3ncc(C(F)(F)F)cc3Cl)c(F)cc2Cl)=NO1 (stereo not drawn) [Compound 49]
10: activity level (growth control rate) Amaranthus retroflexus ([1]; 15 g a.i./ha) | activity level (growth control rate) Echinochloa crus-galli ([2]; 15 g a.i./ha) | activity level (growth control rate) Digitaria sanguinalis ([3]; 15 g a.i./ha) | activity level (growth control rate) Abutilon theophrasti ([4]; 15 g a.i./ha) | activity level (growth control rate) Setaria viridis ([5]; 15 g a.i./ha) | activity level (growth control rate) Veronica polita ([6]; 15 g a.i./ha)

CSCOC(=O)C1(C)CC(c2cc(-c3ncc(C(F)(F)F)cc3Cl)c(F)cc2Cl)=NO1 (stereo not drawn) [Compound 50]
10: activity level (growth control rate) Amaranthus retroflexus ([1]; 15 g a.i./ha) | activity level (growth control rate) Echinochloa crus-galli ([2]; 15 g a.i./ha) | activity level (growth control rate) Digitaria sanguinalis ([3]; 15 g a.i./ha) | activity level (growth control rate) Abutilon theophrasti ([4]; 15 g a.i./ha) | activity level (growth control rate) Setaria viridis ([5]; 15 g a.i./ha) | activity level (growth control rate) Veronica polita ([6]; 15 g a.i./ha)

CC(C#N)OC(=O)C1(C)CC(c2cc(-c3ncc(C(F)(F)F)cc3Cl)c(F)cc2Cl)=NO1 (stereo not drawn) [Compound 51]
10: activity level (growth control rate) Amaranthus retroflexus ([1]; 15 g a.i./ha) | activity level (growth control rate) Echinochloa crus-galli ([2]; 15 g a.i./ha) | activity level (growth control rate) Digitaria sanguinalis ([3]; 15 g a.i./ha) | activity level (growth control rate) Abutilon theophrasti ([4]; 15 g a.i./ha) | activity level (growth control rate) Setaria viridis ([5]; 15 g a.i./ha) | activity level (growth control rate) Veronica polita ([6]; 15 g a.i./ha)

CC(C)=NOC(=O)C1(C)CC(c2cc(-c3ncc(C(F)(F)F)cc3Cl)c(F)cc2Cl)=NO1 (stereo not drawn) [Compound 65]
10: activity level (growth control rate) Amaranthus retroflexus ([1]; 15 g a.i./ha) | activity level (growth control rate) Echinochloa crus-galli ([2]; 15 g a.i./ha) | activity level (growth control rate) Digitaria sanguinalis ([3]; 15 g a.i./ha) | activity level (growth control rate) Abutilon theophrasti ([4]; 15 g a.i./ha) | activity level (growth control rate) Setaria viridis ([5]; 15 g a.i./ha) | activity level (growth control rate) Veronica polita ([6]; 15 g a.i./ha)

C/C(=N\OC(=O)C1(C)CC(c2cc(-c3ncc(C(F)(F)F)cc3Cl)c(F)cc2Cl)=NO1)C(F)(F)F (stereo not drawn) [Compound 67]
10: activity level (growth control rate) Amaranthus retroflexus ([1]; 60 g a.i./ha) | activity level (growth control rate) Echinochloa crus-galli ([2]; 60 g a.i./ha) | activity level (growth control rate) Digitaria sanguinalis ([3]; 60 g a.i./ha) | activity level (growth control rate) Abutilon theophrasti ([4]; 60 g a.i./ha) | activity level (growth control rate) Setaria viridis ([5]; 60 g a.i./ha) | activity level (growth control rate) Veronica polita ([6]; 60 g a.i./ha)

COC/C(C)=N/OC(=O)C1(C)CC(c2cc(-c3ncc(C(F)(F)F)cc3Cl)c(F)cc2Cl)=NO1 (stereo not drawn) [Compound 68]
10: activity level (growth control rate) Amaranthus retroflexus ([1]; 60 g a.i./ha) | activity level (growth control rate) Echinochloa crus-galli ([2]; 60 g a.i./ha) | activity level (growth control rate) Digitaria sanguinalis ([3]; 60 g a.i./ha) | activity level (growth control rate) Abutilon theophrasti ([4]; 60 g a.i./ha) | activity level (growth control rate) Setaria viridis ([5]; 60 g a.i./ha) | activity level (growth control rate) Veronica polita ([6]; 60 g a.i./ha)

CCO/C(C)=N/OC(=O)C1(C)CC(c2cc(-c3ncc(C(F)(F)F)cc3Cl)c(F)cc2Cl)=NO1 (stereo not drawn) [Compound 69]
10: activity level (growth control rate) Amaranthus retroflexus ([1]; 60 g a.i./ha) | activity level (growth control rate) Echinochloa crus-galli ([2]; 60 g a.i./ha) | activity level (growth control rate) Digitaria sanguinalis ([3]; 60 g a.i./ha) | activity level (growth control rate) Abutilon theophrasti ([4]; 60 g a.i./ha) | activity level (growth control rate) Setaria viridis ([5]; 60 g a.i./ha) | activity level (growth control rate) Veronica polita ([6]; 60 g a.i./ha)

CCOC(=O)/C(C)=N/OC(=O)C1(C)CC(c2cc(-c3ncc(C(F)(F)F)cc3Cl)c(F)cc2Cl)=NO1 (stereo not drawn) [Compound 70]
10: activity level (growth control rate) Amaranthus retroflexus ([1]; 60 g a.i./ha) | activity level (growth control rate) Echinochloa crus-galli ([2]; 60 g a.i./ha) | activity level (growth control rate) Digitaria sanguinalis ([3]; 60 g a.i./ha) | activity level (growth control rate) Abutilon theophrasti ([4]; 60 g a.i./ha) | activity level (growth control rate) Setaria viridis ([5]; 60 g a.i./ha) | activity level (growth control rate) Veronica polita ([6]; 60 g a.i./ha)

CC1(C(=O)ON=C(c2ccccc2)c2ccccc2)CC(c2cc(-c3ncc(C(F)(F)F)cc3Cl)c(F)cc2Cl)=NO1 (stereo not drawn) [Compound 71]
10: activity level (growth control rate) Amaranthus retroflexus ([1]; 60 g a.i./ha) | activity level (growth control rate) Echinochloa crus-galli ([2]; 60 g a.i./ha) | activity level (growth control rate) Digitaria sanguinalis ([3]; 60 g a.i./ha) | activity level (growth control rate) Abutilon theophrasti ([4]; 60 g a.i./ha) | activity level (growth control rate) Setaria viridis ([5]; 60 g a.i./ha) | activity level (growth control rate) Veronica polita ([6]; 60 g a.i./ha)

CC1(C(=O)O/N=C/c2ccco2)CC(c2cc(-c3ncc(C(F)(F)F)cc3Cl)c(F)cc2Cl)=NO1 (stereo not drawn) [Compound 72]
10: activity level (growth control rate) Amaranthus retroflexus ([1]; 60 g a.i./ha) | activity level (growth control rate) Echinochloa crus-galli ([2]; 60 g a.i./ha) | activity level (growth control rate) Digitaria sanguinalis ([3]; 60 g a.i./ha) | activity level (growth control rate) Abutilon theophrasti ([4]; 60 g a.i./ha) | activity level (growth control rate) Setaria viridis ([5]; 60 g a.i./ha) | activity level (growth control rate) Veronica polita ([6]; 60 g a.i./ha)
